Measurements published in the METLIN SMRT retention time set (Domingo-Almenara et al. 2019).

Assay: gradient 5% acetonitrile 3 min, to 50% in 2 min, to 85% in 15 min, held 3 min, 100 µL/min
Conditions: column: Zorbax Extend-C18 2.1 x 50 mm; eluents: water / acetonitrile, 0.1% formic acid
Summary of the method: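 The mobile phases were water and acetonitrile, each with 0.1% formic acid, pumped at 100 μL/min through a Zorbax Extend-C18 column (2.1 × 50 mm, 1.8 μm). Pure standards were injected as mixtures of ~100 molecules and detected by a quadrupole time-of-flight mass spectrometer in positive and negative ionization mode. Retention time came from computationally picked adduct peaks, each inspected by hand.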

Row | Compound | RP-LC retention time [s]
1 | COc1ccc(S(=O)(=O)N2CC3CN(C(=O)Cc4cccc(F)c4)CC(C2)O3)cc1 | 825
2 | CCCN1C(=O)c2c(C(=O)NCc3ccc(F)cc3)ncn2CC1(C)C(=O)NCCC(C)C (centres undefined) | 824
3 | C=CCn1c(C)c(CC(=O)Nc2cccc(C)c2)c(=O)n2nc(-c3ccc(C)cc3)nc12 | 989
4 | CCOc1ccc(S(=O)(=O)N2CCCC(C(=O)NCCO)C2)cc1C (centres undefined) | 714
5 | CCOc1ccc(C(=O)N2CCC(c3cc(N)on3)CC2)cc1 | 686
6 | CCCn1ncc(N2CCC(C(=O)N3CCC(C)CC3)CC2)cc1=O | 734
7 | CCCN1C(=O)COc2ccc(-c3noc(C4CC(=O)N(c5ccccc5)C4)n3)cc21 (centres undefined) | 948
8 | Cc1ccc(C(CC(=O)N2CCN(c3ccccn3)CC2)N2Cc3ccccc3C2=O)cc1 (centres undefined) | 655
9 | Cc1cc(C)c(S(=O)(=O)N(CC(=O)N2CCNCC2)CC2CCCO2)cc1C (centres undefined) | 704
10 | COC(=O)c1ccc2c(=O)n(-c3ccc(Cl)cc3)c(N3CCCC3)nc2c1 | 1060
11 | COc1ccc(-c2nc3ncc4c(=O)n(CCc5c[nH]c6ccccc56)ccc4n3n2)cc1 | 940
12 | Cc1cc(C)c(S(=O)(=O)N2CCC(C(=O)NCc3csc(-c4cccs4)n3)CC2)cc1C | 1050
13 | Cc1ccc2[nH]c(=O)c(CCC(=O)NCc3ccncc3)cc2c1 | 586
14 | Cc1ccccc1Oc1nccn2c(=O)n(CC(=O)Nc3c(C)cccc3C)nc12 | 838
15 | COc1cccc(C2Cn3nnc(-c4nc(-c5ccc(Cl)cc5)no4)c3CO2)c1 (centres undefined) | 1220
16 | Cc1nc2nc(-c3ccc(C(C)(C)C)cc3)nn2c(C)c1CC(=O)N1CCN(C)CC1 | 682
17 | CS(=O)(=O)c1nc2ccc(NS(=O)(=O)c3ccc(Br)s3)cc2s1 | 888
18 | CSc1ccccc1CN1CCC(CNC(=O)c2cc(=O)c3ccccc3o2)CC1 | 564
19 | O=C(CC(=O)Nc1ccc2nc3n(c(=O)c2c1)CCCCC3)Nc1ccc(F)cc1 | 705

Row | Compound | RP-LC retention time [s]
20 | O=C(NCc1cccs1)c1nc(-c2ccc(N3CCCC3)cc2)no1 | 1110
21 | O=C(N[C@H]1C[C@@H]2C[C@H]1CN2S(=O)(=O)c1ccccc1C(F)(F)F)c1ccccc1 | 921
22 | COc1ccc(CNC(=O)CN2C(=O)CC(c3cccs3)=Nc3ccccc32)cc1 | 863
23 | CCCCNC(=O)C1CCN(c2ccc(Sc3cc(C)ccc3C)nn2)CC1 | 819
24 | CCc1ccccc1NC(=O)Nc1ccc2nncn2c1 | 662
25 | COc1ccc(-c2cn3c(CC(=O)NCc4cccc(Br)c4)csc3n2)cc1 | 811
26 | Cc1ccc(Cl)c2c1NC(=O)C2(O)CC(=O)c1ccccc1 (centres undefined) | 760
27 | CN1C2CCC1CC(NC(=O)c1nn(C)c3ccccc13)C2 (centres undefined) | 655
28 | CCn1c(C(=O)NCCCN2CCCC(C)C2)c(N2CCCC2=O)c2cc(F)ccc21 (centres undefined) | 660
29 | C=C(C)CSc1nnc(-c2ccc(OC)cc2)o1 | 1030
30 | Cc1nc(OCC(=O)NCCN2CCCC2)c2c(-c3ccccc3)noc2n1 | 627
31 | COc1cc(NC(=O)C2(Cc3ccccc3)CCCCC(=O)N2)cc(OC)c1 (centres undefined) | 847
32 | CCOC(=O)c1ccc(NC(=O)N(Cc2cc(=O)[nH]c3ccccc23)C(C)C)cc1 | 772
33 | CC(=O)N(Cc1nn(C)c2c1CN(S(=O)(=O)c1ccc3c(c1)CCC3)CC2)c1ccccc1 | 868
34 | CCc1ccc(NC(=O)Nc2cccc(-c3nnc4n3CCCC4)c2)cc1 | 736
35 | CCOc1ccccc1CNC(=O)C1CCN(C(=O)C2Sc3ccccc3NC2=O)CC1 (centres undefined) | 779
36 | COC(=O)C1=CN(c2ccc(F)c(Cl)c2)c2ccccc2S1(=O)=O | 910
37 | CCOC(=O)COC(=O)c1cn(-c2cccc(F)c2)c(=O)c2ccccc12 | 1020

More lines, now with the values ahead:

Row | RP-LC retention time [s] | Compound
38 | 854 | CC(C)CC(=O)Nc1nnc(SCc2nnc(-c3ccc4c(c3)OCO4)o2)s1
39 | 1260 | CCOc1ccc(-c2cc3c(=O)n(Cc4nc(-c5ccc(C)c(C)c5)no4)ncn3n2)cc1
40 | 780 | CCn1cc(C(=O)NCCc2cccs2)c(=O)c2cc(OC)ccc21
41 | 759 | Cc1ccc2oc(-c3noc(C(=O)NCCN4CCC(C)CC4)n3)c(C)c2c1
42 | 675 | CNC(=O)c1[nH]c2ccc(C)cc2c1N1CCCC1=O
43 | 689 | CCc1ccc(Oc2cc(N3CCC(C(=O)N4CCN(c5ccccn5)CC4)CC3)ncn2)cc1
44 | 660 | O=[N+]([O-])c1c(NCCO)cc(Nc2ccc3c(c2)OCCO3)c2nonc12
45 | 654 | Oc1c(C(Nc2nccs2)c2ccc(F)cc2)ccc2cccnc12 (centres undefined)
46 | 773 | CCOc1ccc(-c2nc3ncccn3c2NCc2ccc(C)cc2)cc1OC
47 | 680 | CCCCN1CN=C(Nc2nc(C)c3ccccc3n2)NC1
48 | 906 | O=C(Cn1cnc2c(sc3nc(-c4ccccc4)ccc32)c1=O)NC1CCCC1
49 | 597 | Cc1csc(C(=O)Nc2nnc(SCC(=O)Nc3cccnc3)s2)c1
50 | 589 | O=C(Cc1cccc(F)c1)NC1(c2nc(-c3ccsc3)no2)CCCCC1
51 | 862 | COc1ccc(C2Cn3cnc(C(=O)N4CCC(C(=O)NC5CCCCCCC5)CC4)c3CO2)cc1 (centres undefined)
52 | 608 | COCC1CN(S(=O)(=O)c2ccc(C#N)cc2)CC12CCNCC2 (centres undefined)
53 | 580 | CC1CN2C=NC(N3CCN(C(=O)c4ccccc4)CC3)=CC2=N1 (centres undefined)
54 | 745 | COc1cc(OC)cc(C(=O)NC2CCN(c3cc(-c4ccc(F)cc4)[nH]n3)C2)c1 (centres undefined)
55 | 768 | CCOC(=O)CNC(=O)N1CCCC1c1ccccc1C (centres undefined)
56 | 1090 | CCCc1noc(-c2nc(-c3ccccc3F)no2)n1
57 | 744 | Cc1oc(C2CCN(C(=O)Nc3ccc(F)cc3F)CC2)nc1C(=O)N1CCCC1
58 | 701 | CCOC(=O)c1c(S(=O)(=O)N2CCC(C(=O)Nc3cccc(C)n3)CC2)c(C)n(C)c1C
59 | 853 | O=C(NC1CCCC1)c1ccc(Cn2nc(N3CCN(c4ccc(F)cc4)CC3)ccc2=O)o1
60 | 804 | O=C(Nc1ccc(N2CCN(C3CCCC3)C2=O)nc1)c1ccccc1F
61 | 657 | CCc1nnc2ccc(NC3CC3)nn12
62 | 752 | O=C1NCCCCCN(C(=O)c2ccco2)[C@@H]2C[C@@H](C(=O)N3CCc4ccccc4C3)C[C@H]12
63 | 788 | CC(=O)N1CCc2ccccc2C1C(=O)NCc1ccccc1C (centres undefined)

Row | RP-LC retention time [s] | Compound
64 | 634 | O=C(c1cccs1)N1CCC(F)(C(=O)NC2CC2)CC1
65 | 764 | COc1ccc(CNC(=O)C2=C3CCCN3c3ccc(F)cc3S2(=O)=O)cc1OC
66 | 650 | CCCN1C(=O)Cc2ccccc2C1C(=O)N1CCOCC1 (centres undefined)
67 | 722 | COCc1nnc(-c2ccc3c(c2)OCO3)o1
68 | 768 | N#Cc1cccc(C(=O)NC2CCN(c3ccc(F)cc3)C2=O)c1 (centres undefined)
69 | 547 | Cc1ccsc1CN1CCN(c2cnn3cnnc3c2)CC1
70 | 861 | CCc1noc(NC(C)=O)c1-c1ccc(C)c(S(=O)(=O)Nc2c(C)cccc2C)c1
71 | 864 | CCc1noc(NC(C)=O)c1-c1ccc(OC)c(S(=O)(=O)N2CCC(C)CC2)c1
72 | 601 | O=C(NCC1CCN(C(=O)c2cc3ccccc3o2)CC1)C(=O)Nc1cccnc1
73 | 911 | COc1ccccc1-c1noc(Cn2c(=O)n(-c3ccc(C)cc3)c(=O)c3sccc32)n1
74 | 790 | O=C(Cn1nc(N2CCOCC2)c2ccccc2c1=O)Nc1ccccc1F
75 | 898 | Cc1nc(C#Cc2ccnc(Cl)c2)c(C)n1-c1ccc(OC(F)(F)F)cc1
76 | 660 | CC(NC(=O)C1CCN(c2cncnc2N2CCCC2)CC1)c1ccccc1 (centres undefined)
77 | 1120 | CCCc1noc(-c2ccnc(-n3ncc(C(=O)Nc4ccc(F)cc4)c3C)c2)n1
78 | 891 | Cn1cc(-c2cc3n(n2)CCC(=O)N3CC(=O)NCCC2=CCCCC2)c2ccccc21
79 | 591 | CCn1c(-c2ccccc2)cc(C(N)=O)c1C
80 | 685 | COCCCNC(=O)CN1C(=O)CCn2nc(-c3cn(C)c4ccccc34)cc21
81 | 706 | O=C(CSc1ncnc2ccccc12)NCCc1ccccc1
82 | 1210 | Cc1ccc(-n2ncc3c(=O)n(Cc4nc(-c5ccc(Cl)c(F)c5)no4)cnc32)cc1
83 | 626 | CCCCN1CCN(C(=O)C2c3ccccc3CCN2C(=O)CC)CC1 (centres undefined)
84 | 574 | Cc1cc(C)c2c(N3CCOCC3)nc(C(=O)N3CCN(C4CCCCC4)CC3)nc2n1
85 | 641 | COCC1CN(S(=O)(=O)c2cc(F)ccc2C)CC12CCNCC2 (centres undefined)
86 | 858 | CCC(C)NC(=O)c1cn(-c2ncccc2-c2nc(-c3ccccc3)no2)cn1 (centres undefined)
87 | 984 | O=C(Cn1cnc2sc3c(c2c1=O)CCCC3)Nc1cccc(Cl)c1
88 | 872 | CCc1noc(NC(C)=O)c1-c1ccc(C)c(S(=O)(=O)Nc2ccc(F)cc2Cl)c1
89 | 1250 | CCc1ccc(-n2ncc3c(=O)n(Cc4nc(-c5ccc(F)c(Cl)c5)no4)cnc32)cc1
